Source: patent publication US12559505B2, “IDH mutant inhibitor and use thereof” (WIGEN BIOMEDICINE TECHNOLOGY (SHANGHAI) CO., LTD., priority 2020, dated 2026)
One block for each compound: values may come before it.

Biological target: T1, IDH R132C (Homo sapiens, UniProt O75874, R132C)
T1 construct: expressed in transfected cells; host or cells: U87 cells
Experiment: Detection of 2-HG in supernatant of U87-IDH R132C cells
Format: cell-based
Conditions: 72 h, LC-MS-MS, vs control; for inhibition at 0.001 µM: 1 nM compound, read-out: Inhibition rate of compounds on 2-HG in the supernatant of U87-IDH R132C cells, 1 nM; for inhibition at 0.01 µM: 10 nM compound, read-out: Inhibition rate of compounds on 2-HG in the supernatant of U87-IDH R132C cells, 10 nM; for inhibition at 0.1 µM: 100 nM compound, read-out: Inhibition rate of compounds on 2-HG in the supernatant of U87-IDH R132C cells, 100 nM
Description: U87 cells overexpressing the IDH R132C mutation were seeded in a 48-well plate at 50,000 cells/well. After the cells were incubated overnight for adhesion, the supernatant was removed. The cell culture media containing serially diluted compounds were added, and the cells were incubated for 72 h. After 72 h, the cultures were collected and diluted 10-fold with water, and acetonitrile was added to extract the metabolites. The 2-HG content in the cultures was analyzed by LC-MS-MS, and the percentage inhibition of compounds on 2-HG in the supernatant was calculated as compared with the control.

T1 sequence (O75874 whole entry R132C): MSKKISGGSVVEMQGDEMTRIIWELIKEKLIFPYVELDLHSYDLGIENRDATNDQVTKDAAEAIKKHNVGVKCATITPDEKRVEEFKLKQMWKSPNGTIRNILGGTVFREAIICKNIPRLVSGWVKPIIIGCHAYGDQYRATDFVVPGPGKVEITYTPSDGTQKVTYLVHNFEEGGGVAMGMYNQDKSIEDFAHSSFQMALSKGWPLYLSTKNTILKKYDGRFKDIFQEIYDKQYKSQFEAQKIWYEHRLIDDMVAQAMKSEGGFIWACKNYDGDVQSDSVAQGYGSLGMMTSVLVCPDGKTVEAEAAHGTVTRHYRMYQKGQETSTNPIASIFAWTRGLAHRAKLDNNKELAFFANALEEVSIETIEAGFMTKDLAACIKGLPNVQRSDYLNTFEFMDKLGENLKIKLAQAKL

inhibition at 0.001 µM: 30 to 60%
inhibition at 0.01 µM: 60 to 90%
inhibition at 0.1 µM: > 90%
Compound: C=CC(=O)N1CC2(C1)CN(C(CC1CC1)c1ccc([C@H](C)Nc3ncc4c(n3)N(CCC)C(=O)OC4)cc1)C2 (stereo partly drawn) [Compound 53]

inhibition at 0.001 µM: 30 to 60%
inhibition at 0.01 µM: > 90%
inhibition at 0.1 µM: > 90%
Compound: C=CC(=O)N1CC2(C1)CN(C(CC(C)C)c1ccc([C@H](C)Nc3ncc4c(n3)N(CC)C(=O)OC4)cc1)C2 (stereo partly drawn) [Compound 41]

inhibition at 0.001 µM: 30 to 60%
inhibition at 0.01 µM: 60 to 90%
inhibition at 0.1 µM: > 90%
Compound: C=CC(=O)N1CCN([C@H](CC23CC(C2)C3)c2ccc([C@H](C)Nc3ncc4c(n3)N(CC)C(=O)OC4)cc2)CC1 [Compound 157-2]

inhibition at 0.001 µM: 30 to 60%
inhibition at 0.01 µM: 60 to 90%
inhibition at 0.1 µM: > 90%
Compound: C=CC(=O)N1CCN(C(CCC)c2ccc([C@H](C)Nc3ncc4c(n3)N(CC)C(=O)OC4)cc2)CC1 (stereo partly drawn) [Compound 141]

inhibition at 0.001 µM: 60 to 90%
inhibition at 0.01 µM: > 90%
inhibition at 0.1 µM: > 90%
Compound: C=CC(=O)N1CCN([C@@H](CC23CC(C2)C3)c2ccc([C@H](C)Nc3ncc4c(n3)N(CC)C(=O)OC4)cc2)CC1 [Compound 157-1]

inhibition at 0.001 µM: 30 to 60%
inhibition at 0.01 µM: 60 to 90%
inhibition at 0.1 µM: > 90%
Compound: C=CC(=O)N1CC2(C1)CN(C(CC(C)(C)C)c1ccc([C@H](C)Nc3ncc4c(n3)N(CC)C(=O)OC4)cc1)C2 (stereo partly drawn) [Compound 59]

inhibition at 0.001 µM: 60 to 90%
inhibition at 0.01 µM: > 90%
inhibition at 0.1 µM: > 90%
Compound: C=CC(=O)N1CCN(C(CC)c2ccc([C@H](C)Nc3ncc4cnc(=O)n(C(C)C)c4n3)cc2)CC1 (stereo partly drawn) [Compound 112]

inhibition at 0.001 µM: 30 to 60%
inhibition at 0.01 µM: 60 to 90%
inhibition at 0.1 µM: > 90%
Compound: C=CC(=O)N1CCN([C@H](CC2CC2)c2ccc([C@H](C)Nc3ncc4cnc(=O)n(C(C)C)c4n3)cc2)CC1 [Compound 85-2]

inhibition at 0.001 µM: 30 to 60%
inhibition at 0.01 µM: > 90%
inhibition at 0.1 µM: > 90%
Compound: C=CC(=O)N(C)C1CN(C(CC2CC2)c2ccc([C@H](C)Nc3ncc4c(n3)N(C(C)C)C(=O)OC4)cc2)C1 (stereo partly drawn) [Compound 25]

The remaining lines, values behind:

Compound: N#Cc1ccnc(N2C(=O)CC[C@H]2C(=O)N(c2cncc(F)c2)[C@H](C(=O)NC2CC(F)(F)C2)c2ccccc2Cl)c1 [Ivosidenib, ivosidenib, reference compound]
inhibition at 0.001 µM: < 30%
inhibition at 0.01 µM: < 30%
inhibition at 0.1 µM: 60 to 90%

Compound: C=CC(=O)NC1CN(C(CC2CC2)c2ccc([C@H](C)Nc3ncc4c(n3)N(CC)C(=O)OC4)cc2)C1 (stereo partly drawn) [Compound 14]
inhibition at 0.001 µM: 30 to 60%
inhibition at 0.01 µM: > 90%
inhibition at 0.1 µM: > 90%

Compound: C=CC(=O)NC1CN(C(CC2CC2)c2ccc([C@H](C)Nc3ncc4c(n3)N(C(C)C)C(=O)OC4)cc2)C1 (stereo partly drawn) [Compound 23]
inhibition at 0.001 µM: 30 to 60%
inhibition at 0.01 µM: 60 to 90%
inhibition at 0.1 µM: > 90%

Compound: C=CC(=O)N1CC2(C1)CN([C@H](CC13CC(C1)C3)c1ccc([C@H](C)Nc3ncc4c(n3)N(CC)C(=O)NC4)cc1)C2 [Compound 72-2]
inhibition at 0.001 µM: 30 to 60%
inhibition at 0.01 µM: 60 to 90%
inhibition at 0.1 µM: > 90%

Compound: C=CC(=O)N(C)C1CN(C(CC2CC2)c2ccc([C@H](C)Nc3ncc4c(n3)N(CC)C(=O)OC4)cc2)C1 (stereo partly drawn) [Compound 19]
inhibition at 0.001 µM: 30 to 60%
inhibition at 0.01 µM: > 90%
inhibition at 0.1 µM: > 90%

Compound: C=CC(=O)NC1CCN(C(CC2CC2)c2ccc([C@H](C)Nc3ncc4c(n3)N(CC)C(=O)OC4)cc2)CC1 (stereo partly drawn) [Compound 11]
inhibition at 0.001 µM: 30 to 60%
inhibition at 0.01 µM: > 90%
inhibition at 0.1 µM: > 90%

Compound: C=CC(=O)N1CCN(C(CC2CCC2)c2ccc(C3(Nc4ncc5c(n4)N(CC)C(=O)OC5)CC3)cc2)CC1 (stereo not drawn) [Compound 153]
inhibition at 0.001 µM: 30 to 60%
inhibition at 0.01 µM: 60 to 90%
inhibition at 0.1 µM: > 90%

Compound: C=CC(=O)N1CCN(C(CC2CC2)c2ccc(C3(Nc4ncc5c(n4)N(CC)C(=O)OC5)CC3)cc2)CC1 (stereo not drawn) [Compound 152]
inhibition at 0.001 µM: 30 to 60%
inhibition at 0.01 µM: > 90%
inhibition at 0.1 µM: > 90%
